# Structures can show the parent of a compound that is named as a salt.
# Biological target: T1, Rev-Erb alpha (Homo sapiens, UniProt P20393)
# T1 sequence (P20393 284-614 limits assumed): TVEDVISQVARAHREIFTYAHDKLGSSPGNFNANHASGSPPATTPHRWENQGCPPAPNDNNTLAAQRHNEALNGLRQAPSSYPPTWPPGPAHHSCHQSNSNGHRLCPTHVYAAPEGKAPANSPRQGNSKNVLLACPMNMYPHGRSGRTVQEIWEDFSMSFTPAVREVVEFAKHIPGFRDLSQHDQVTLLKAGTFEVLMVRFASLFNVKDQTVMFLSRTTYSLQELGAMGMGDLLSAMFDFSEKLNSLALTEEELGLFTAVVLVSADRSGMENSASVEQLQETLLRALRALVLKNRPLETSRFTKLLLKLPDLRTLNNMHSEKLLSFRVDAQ
# Assay: M2H (mammalian two-hybrid) cellular activation assay of Rev-Erb alpha
# Assay type: cell-based
# Conditions: M2H assay, HEK293 cells, Gal4-Rev-Erb alpha / VP16-NCoR, luciferase reporter
# Method: In this system, Rev-Erb alpha or Rev-Erb beta is expressed as a fusion to the Gal4 DNA-binding domain and the cofactor NCoR is expressed as a fusion to the activation domain of the Herpes Simplex Virus tegument protein VP16. These fusion proteins were included in plasmids at a concentration of 1 μg/μL. The pBS-SK+ vector was added to the preparation to adjust the DNA quantity to a fixed value for each condition.
# The transfection mix (Jet-PEI protocol, Polyplus transfection) comprised: • 3 mL of Jet PEI Mix (180 μL Jet-Pei and NaCl at 150 mM) and • 3 mL of the DNA Mix or of the DNA Mix control (wherein the Gal4-Rev-Erb alpha plasmid was replaced by a pGal4phi plasmid).
# DNA Mix comprised 1.2 mL of DNA and 1.8 mL of NaCl at 150 mM with, in a T225 flask: • 90 ng of Gal4-Rev-Erb alpha, or 90 ng of Gal4-Rev-Erb beta, • 4500 ng of VP16-NCoR, • 27000 ng of Gal4-RE and • 13410 ng of pBS-SK+. Cells
# HEK293 cells were cultured in DMEM (Invitrogen 41965) comprising 10% FBS, P/S, 1% glutamine, 1% pyruvate (Invitrogen 11360) and 1% amino acids (Invitrogen 11140). Cells were then batch co-transfected with plasmid vectors (described in the table above) using as Jet-PEI as reagent (Polyplus) following the protocol specified below.
# The 6 mL-transfection mix was transferred in a T225 flask. HEK293 cells were then added at a concentration of 12 Millions of cells for 54 mL of medium (DMEM comprising 10% FBS and 1% P/S). Cells incubated over-night at 37° C. and under 5% CO2.
# This cell-based assay is performed using 384-well Greiner white plates (Reference 781080). After the incubation, cells were rinsed with PBS, trypsinized, centrifuged and resuspended in free-serum DMEM without phenol red (Invitrogen 31053). Cells were counted and adjusted to 0.5 Million per mL and plated at a concentration of 10,000 cells in 20 μL per well. They were incubated a minimum of 4 hours at 37° C. under 5% CO2. Cells were treated with 20 μL of the compound to analyze (concentration of 2× diluted in DMEM without FBS containing a maximum of 1% DMSO) and incubated over-night (18 hours, 37° C. and 5% CO2). Each compound has been tested at 6 different concentrations to depict a dose-effect allowing the measure of biochemical parameters such as EC50 and TOP activation (%).
# Cells were incubated 30 minutes with 40 μL/well of Steady Glow (Promega) and luminescence was read with TECAN Genios Pro (100 ms/w). Four experiments were carried out for each compound.
# Each compound has been tested at 6 different concentrations to depict a dose-effect allowing the measure of biochemical parameters such as EC50 and TOP activation (%).
# The mammalian two-hybrid system (M2H) assay consists herein in studying the ability of compounds according to the invention to activate Rev-Erbalpha in cells and thus modulate the interaction with its corepressor. The interaction of the two proteins is assessed with the help of the Luciferase reporter gene. HEK293 cells were transfected with two gene constructions: Gal4-RE VP16-NCoR and Gal4-Rev-Erbalpha or with Gal4-RE, sVP16-NCoR and Gal4-Rev-Erb beta.
# The ability of compounds according to the invention of activating Rev-Erbalpha alpha or Rev-Erb beta was assessed in the described cell-based assay. EC50 and TOP activation (%) were measured.
row,SMILES,EC50 [µM]
1,CN(Cc1ccccc1)Cc1ccc(Oc2ccc3nnc(Cl)n3n2)c(-c2ccccc2)c1,0.1 to 1
2,CN(CCc1ccccc1)Cc1ccc(Oc2ccc3nnc(Cl)n3n2)c(-c2ccccc2)c1,1 to 6
3,CN(Cc1ccc(Oc2ccc3nnc(Cl)n3n2)c(-c2ccccc2)c1)C1CCCCC1,1 to 6
4,FC(F)(F)c1cccc(Oc2ccc3nnc(Cl)n3n2)c1-c1ccccc1,< 0.1
5,"Nc1ccc(-c2ccccc2)c(Oc2ccc3nnc(Cl)n3n2)c1 [Cpd.4-48, 3-chloro-6-(4-amino-biphenyl-2-yloxy)-[1,2,4]triazolo[4,3-b]pyridazine]",1 to 6
6,"CC(=O)Nc1ccc(-c2ccccc2)c(Oc2ccc3nnc(Cl)n3n2)c1 [Cpd.4-49, 3-chloro-6-(4-acetamido-biphenyl-2-yloxy)-[1,2,4]triazolo[4,3-b]pyridazine]",1 to 6
7,"Fc1cc(Oc2ccc3nnc(C(F)(F)F)n3n2)c(-c2ccccc2)cc1F [Cpd.4-61, 3-trifluoromethyl-6-(4,5-difluorobiphenyl-2-yloxy)-[1,2,4]triazolo[4,3-b]pyridazine]",1 to 6
8,"Clc1nnc2ccc(Oc3ccc(CN4CCOCC4)cc3-c3ccccc3)nn12 [Cpd.4-62, 3-chloro-6-(5-morpholinomethyl-biphenyl-2-yloxy)-[1,2,4]triazolo[4,3-b]pyridazine]",1 to 6
9,"CN(C)Cc1ccc(Oc2ccc3nnc(Cl)n3n2)c(-c2ccccc2)c1 [Cpd.4-63, 3-chloro-6-(5-N,N-dimethylaminomethyl-biphenyl-2-yloxy)-[1,2,4]triazolo[4,3-b]pyridazine]",> 6
10,"NCc1ccc(-c2ccccc2)c(Oc2ccc3nnc(Cl)n3n2)c1 [Cpd.4-65, 3-chloro-6-(4-aminomethyl-biphenyl-2-yloxy)-[1,2,4]triazolo[4,3-b]pyridazine]",> 6
11,"OCc1ccc(Oc2ccc3nnc(Cl)n3n2)c(-c2ccccc2)c1 [Cpd.4-66, 3-chloro-6-(5-hydroxymethyl-biphenyl-2-yloxy)-[1,2,4]triazolo[4,3-b]pyridazine]",1 to 6
12,"NC(=O)c1cccc(-c2ccc(C(F)(F)F)cc2Oc2ccc3nnc(Cl)n3n2)c1 [Cpd.4-72, 3-chloro-6-(4-trifluoromethyl-3′-aminocarbonyl-biphenyl-2-yloxy)-[1,2,4]triazolo[4,3-b]pyridazine]",1 to 6
13,COC(=O)c1cccc(-c2cc(F)ccc2Oc2ccc3nnc(Cl)n3n2)c1 [Cpd.4-75],1 to 6
14,"FC(F)(F)c1ccc(-c2ccncc2)c(Oc2ccc3nnc(Cl)n3n2)c1 [Cpd.4-79, 3-chloro-6-(2-(pyridin-4-yl)-5-(trifluoromethyl)phenoxy)-[1,2,4]triazolo[4,3-b]pyridazine hydrochloride]",1 to 6

# Next, values leading:
row,EC50 [µM],SMILES
1,0.1 to 1,"Fc1cccc(-c2cccc(Oc3ccc4nnc(Cl)n4n3)c2)c1 [Cpd.3-6, 6-(3′-fluoro-biphenyl-3-yloxy)-3-chloro-[1,2,4]triazolo[4,3-b]pyridazine]"
2,1 to 6,"COc1ccc(-c2cccc(Oc3ccc4nnc(Cl)n4n3)c2)cc1 [Cpd.3-7, 6-(4′-methoxy-biphenyl-3-yloxy)-3-chloro-[1,2,4]triazolo[4,3-b]pyridazine]"
3,0.1 to 1,"FC(F)(F)c1nnc2ccc(Oc3ccccc3-c3ccccc3)nn12 [Cpd.4-2, 6-(biphenyl-2-yloxy)-3-(trifluoromethyl)-[1,2,4]triazolo[4,3-b]pyridazine]"
4,0.1 to 1,"Fc1ccc(-c2ccccc2Oc2ccc3nnc(Cl)n3n2)c(F)c1 [Cpd.4-13, 6-(2′,4′-difluoro-biphenyl-2-yloxy)-3-chloro-[1,2,4]triazolo[4,3-b]pyridazine]"
5,0.1 to 1,"COc1cccc(-c2ccccc2Oc2ccc3nnc(Cl)n3n2)c1 [Cpd.4-16, 6-(3′-methoxy-biphenyl-2-yloxy)-3-chloro-[1,2,4]triazolo[4,3-b]pyridazine]"
6,0.1 to 1,"FC(F)(F)c1cccc(-c2ccccc2Oc2ccc3nnc(Cl)n3n2)c1 [Cpd.4-28, 6-(3′-trifluoromethyl-biphenyl-2-yloxy)-3-chloro-[1,2,4]triazolo[4,3-b]pyridazine]"
7,0.1 to 1,"Clc1cccc(-c2ccccc2Oc2ccc3nnc(Cl)n3n2)c1 [Cpd.4-29, 6-(3′-chloro-biphenyl-2-yloxy)-3-chloro-[1,2,4]triazolo[4,3-b]pyridazine]"
8,1 to 6,"Nc1ccc(Oc2ccc3nnc(Cl)n3n2)c(-c2ccccc2)c1 [Cpd.4-36, 6-(5-amino-biphenyl-2-yloxy)-3-chloro-[1,2,4]triazolo[4,3-b]pyridazine]"
9,0.1 to 1,"Oc1cccc(-c2ccc(C(F)(F)F)cc2Oc2ccc3nnc(Cl)n3n2)c1 [Cpd.4-37, 6-(3′-hydroxy-4-trifluoromethyl-biphenyl-2-yloxy)-3-chloro-[1,2,4]triazolo[4,3-b]pyridazine]"
10,0.1 to 1,"FC(F)(F)c1ccc(Oc2ccc3nnc(Cl)n3n2)c(-c2ccccc2)c1 [Cpd.4-40, 6-(5-trifluoromethyl-biphenyl-2-yloxy)-3-chloro-[1,2,4]triazolo[4,3-b]pyridazine]"
11,1 to 6,"O=C(c1ccccc1)c1cc(Cl)ccc1Oc1ccc2nnc(Cl)n2n1 [Cpd.4-42, (5-chloro-2-(3-chloro-[1,2,4]triazolo[4,3-b]pyridazin-6-yloxy)phenyl)(phenyl)methanone]"
12,< 0.1,"COC(=O)c1ccc(-c2ccccc2)c(Oc2ccc3nnc(Cl)n3n2)c1 [Cpd.4-43, 3-chloro-6-(4-methyloxycarbonyl-biphenyl-2-yloxy)-[1,2,4]triazolo[4,3-b]pyridazine]"
13,0.1 to 1,"CNc1ccc(-c2ccccc2)c(Oc2ccc3nnc(Cl)n3n2)c1 [Cpd.4-52, 3-chloro-6-(4-N-methylamino-biphenyl-2-yloxy)-[1,2,4]triazolo[4,3-b]pyridazine]"
14,0.1 to 1,"CCCCN(CCCC)c1ccc(Oc2ccc3nnc(Cl)n3n2)c(-c2ccccc2)c1 [Cpd.4-57, 3-chloro-6-(5-dibutylamino-biphenyl-2-yloxy)-[1,2,4]triazolo[4,3-b]pyridazine]"
15,0.1 to 1,"COC(=O)c1ccc(Oc2ccc3nnc(Cl)n3n2)c(-c2ccccc2)c1 [Cpd.4-69, 3-chloro-6-(5-methyloxycarbonyl-biphenyl-2-yloxy)-[1,2,4]triazolo[4,3-b]pyridazine]"
16,0.1 to 1,"COc1cccc(-c2ccc(C(F)(F)F)cc2Oc2ccc3nnc(Cl)n3n2)c1 [Cpd.4-71, 3-chloro-6-(3′-methoxy-4-trifluoromethyl-biphenyl-2-yloxy)-[1,2,4]triazolo[4,3-b]pyridazine]"
17,0.1 to 1,"COc1cccc(-c2cc(F)ccc2Oc2ccc3nnc(Cl)n3n2)c1 [Cpd.4-76, 3-chloro-6-(5-fluoro-3′ methoxy-biphenyl-2-yloxy)-[1,2,4]triazolo[4,3-b]pyridazine]"
18,0.1 to 1,"Fc1ncccc1-c1ccc(C(F)(F)F)cc1Oc1ccc2nnc(Cl)n2n1 [Cpd.4-78, 3-chloro-6-(2-(2-fluoropyridin-3-yl)-5-(trifluoromethyl)phenoxy)-[1,2,4]triazolo[4,3-b]pyridazine]"
19,0.1 to 1,"COc1ncccc1-c1ccc(C(F)(F)F)cc1Oc1ccc2nnc(Cl)n2n1 [Cpd.4-80, 3-chloro-6-(2-(2-methoxypyridin-3-yl)-5-(trifluoromethyl)phenoxy)-[1,2,4]triazolo[4,3-b]pyridazine hydrochloride]"

# Same assay, conditions: M2H assay, HEK293 cells; relative to DMSO; at the tested dose; read-out: TOP activation
row,Emax [%],SMILES
1,> 130,"CN(C)Cc1ccc(Oc2ccc3nnc(Cl)n3n2)c(-c2ccccc2)c1 [Cpd.4-63, 3-chloro-6-(5-N,N-dimethylaminomethyl-biphenyl-2-yloxy)-[1,2,4]triazolo[4,3-b]pyridazine]"
2,> 130,"NCc1ccc(-c2ccccc2)c(Oc2ccc3nnc(Cl)n3n2)c1 [Cpd.4-65, 3-chloro-6-(4-aminomethyl-biphenyl-2-yloxy)-[1,2,4]triazolo[4,3-b]pyridazine]"

# — patent US9586963B2 (GENFIT, priority 2011, dated 2017)
